Measured values reported in ChEMBL document CHEMBL1909046, “DrugMatrix in vitro pharmacology data”.
*1 amine or outer side, *2 acyl side, *3 side chain or, on linkers, in order; H or OH if unused. Where a SMILES comes first, the peptide text is derived from it. Bridges are numbered along the chain shown (N, C = ends). Roman numbers before positions name the chains, in order. [ ]: non-standard residue; d: D form. Actinocin(1to9) = Cc1c2oc3c(C)ccc(C(=O)[*:2])c3nc-2c(C(=O)[*:1])c(N)c1=O; NMeV = CN[C@H](C(=O)O)C(C)C; Sar = CNCC(=O)O

Legend:
[1] = DRUGMATRIX: Phosphodiesterase PDE3 enzyme inhibition (substrate: [3H]cAMP + cAMP); format: tissue-based, Homo sapiens; settings: platelet; Not Active = under 50% inhibition at 10 µM
[2] = molecular target: T1, Alpha-1D adrenergic receptor (Homo sapiens, UniProt P25100); format: cell membranes, HEK293, Membrane; settings: hek293; further: in other assays of this panel Not Active means under 50% inhibition at 10 µM
T1 sequence (P25100 whole entry): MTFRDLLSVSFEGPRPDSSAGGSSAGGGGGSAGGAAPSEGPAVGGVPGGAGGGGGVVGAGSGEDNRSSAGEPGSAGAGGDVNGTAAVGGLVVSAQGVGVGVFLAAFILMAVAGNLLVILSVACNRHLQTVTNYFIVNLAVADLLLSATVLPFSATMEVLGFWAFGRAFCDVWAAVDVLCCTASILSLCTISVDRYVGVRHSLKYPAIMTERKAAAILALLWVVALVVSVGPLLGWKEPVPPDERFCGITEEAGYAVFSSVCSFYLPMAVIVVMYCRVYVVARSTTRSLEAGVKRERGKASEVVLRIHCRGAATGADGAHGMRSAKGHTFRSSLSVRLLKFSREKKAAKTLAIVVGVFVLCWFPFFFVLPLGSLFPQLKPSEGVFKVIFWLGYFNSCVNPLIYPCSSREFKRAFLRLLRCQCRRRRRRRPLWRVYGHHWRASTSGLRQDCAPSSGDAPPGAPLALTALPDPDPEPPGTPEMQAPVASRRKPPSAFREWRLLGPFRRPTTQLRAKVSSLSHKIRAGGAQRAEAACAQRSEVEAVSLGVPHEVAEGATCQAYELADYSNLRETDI

[3] = DRUGMATRIX: Phorbol Ester radioligand binding (ligand: [3H] PDBu); format: cell membranes, Mus musculus, ICR, Brain, Membrane; settings: Not Active = under 50% inhibition at 10 µM
[4] = molecular target: Kappa-type opioid receptor (Homo sapiens, UniProt P41145); assay: DRUGMATRIX: Opiate kappa (OP2, KOP) radioligand binding (ligand: [3H] Diprenorphine); format: cell membranes, HEK293, Membrane; settings: hek293; Not Active = under 50% inhibition at 10 µM
Chain of Kappa-type opioid receptor (P41145 whole entry): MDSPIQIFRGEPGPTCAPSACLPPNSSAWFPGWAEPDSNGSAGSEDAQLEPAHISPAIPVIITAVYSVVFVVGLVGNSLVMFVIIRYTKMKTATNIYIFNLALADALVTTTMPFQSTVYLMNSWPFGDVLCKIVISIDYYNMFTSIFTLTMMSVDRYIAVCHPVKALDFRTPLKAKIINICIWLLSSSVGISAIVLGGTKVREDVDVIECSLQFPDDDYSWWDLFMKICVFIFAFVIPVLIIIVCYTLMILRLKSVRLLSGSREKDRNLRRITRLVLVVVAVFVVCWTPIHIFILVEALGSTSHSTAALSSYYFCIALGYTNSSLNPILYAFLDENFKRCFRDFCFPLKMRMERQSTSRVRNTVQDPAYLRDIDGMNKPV

[5] = molecular target: T2, Type-2 angiotensin II receptor (Homo sapiens, UniProt P50052); format: cell-based; settings: cho-k1; further: in other assays of this panel Not Active means under 50% inhibition at 10 µM
T2 sequence (P50052 whole entry): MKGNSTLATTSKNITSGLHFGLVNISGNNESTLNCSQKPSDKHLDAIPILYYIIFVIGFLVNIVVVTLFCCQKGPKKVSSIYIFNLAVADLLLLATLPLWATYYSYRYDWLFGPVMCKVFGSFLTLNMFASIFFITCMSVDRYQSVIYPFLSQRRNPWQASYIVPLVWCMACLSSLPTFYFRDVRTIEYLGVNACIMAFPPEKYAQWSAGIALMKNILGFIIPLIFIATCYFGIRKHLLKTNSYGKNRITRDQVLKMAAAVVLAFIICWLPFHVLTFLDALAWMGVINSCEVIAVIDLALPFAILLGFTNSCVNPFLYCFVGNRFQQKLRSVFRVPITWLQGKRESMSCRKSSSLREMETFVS

[6] = molecular target: T3, Nitric oxide synthase, inducible (Mus musculus, UniProt P29477); set-up: species or system Escherichia coli;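 further: inhibition of iNOS enzyme activity measured with L-arginine as substrate; in other assays of this panel Not Active means under 50% inhibition at 10 µM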
T3 sequence (P29477 whole entry): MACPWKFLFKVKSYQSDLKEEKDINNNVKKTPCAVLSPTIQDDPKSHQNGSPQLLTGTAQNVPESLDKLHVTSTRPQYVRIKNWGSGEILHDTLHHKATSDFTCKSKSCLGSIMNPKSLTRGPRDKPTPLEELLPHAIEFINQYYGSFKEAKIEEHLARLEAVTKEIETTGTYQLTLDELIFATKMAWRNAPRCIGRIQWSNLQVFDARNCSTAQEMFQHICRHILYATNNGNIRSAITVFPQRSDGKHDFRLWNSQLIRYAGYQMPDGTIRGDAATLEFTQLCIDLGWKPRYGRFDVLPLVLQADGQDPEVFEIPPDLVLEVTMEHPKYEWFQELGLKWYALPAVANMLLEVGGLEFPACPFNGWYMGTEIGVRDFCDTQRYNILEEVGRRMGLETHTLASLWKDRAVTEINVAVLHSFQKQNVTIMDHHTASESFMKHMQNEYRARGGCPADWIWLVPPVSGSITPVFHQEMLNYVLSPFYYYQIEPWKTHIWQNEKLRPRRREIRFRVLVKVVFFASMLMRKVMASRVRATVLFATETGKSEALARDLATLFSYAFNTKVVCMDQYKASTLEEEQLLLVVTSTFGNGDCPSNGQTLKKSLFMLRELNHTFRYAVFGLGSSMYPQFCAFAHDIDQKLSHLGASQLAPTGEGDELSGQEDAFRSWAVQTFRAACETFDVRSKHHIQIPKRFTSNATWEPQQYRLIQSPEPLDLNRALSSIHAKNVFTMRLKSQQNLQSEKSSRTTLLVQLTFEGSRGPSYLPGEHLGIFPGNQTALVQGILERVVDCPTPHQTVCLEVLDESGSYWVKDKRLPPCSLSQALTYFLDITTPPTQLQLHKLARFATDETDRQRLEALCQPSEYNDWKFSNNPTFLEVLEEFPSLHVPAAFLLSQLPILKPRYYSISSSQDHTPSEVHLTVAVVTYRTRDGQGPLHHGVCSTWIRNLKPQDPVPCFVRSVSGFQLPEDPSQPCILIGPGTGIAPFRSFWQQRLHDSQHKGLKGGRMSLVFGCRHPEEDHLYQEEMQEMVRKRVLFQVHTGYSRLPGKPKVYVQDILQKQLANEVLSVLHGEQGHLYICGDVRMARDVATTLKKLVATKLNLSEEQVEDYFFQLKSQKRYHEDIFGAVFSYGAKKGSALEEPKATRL

Cytochrome P450 2C9 = Cytochrome P450 2C9 (Homo sapiens, UniProt P11712); settings: bti-tn-5b1-4; further: in other assays of this panel Not Active means under 50% inhibition at 10 µM
Chain of Cytochrome P450 2C9 (P11712 whole entry): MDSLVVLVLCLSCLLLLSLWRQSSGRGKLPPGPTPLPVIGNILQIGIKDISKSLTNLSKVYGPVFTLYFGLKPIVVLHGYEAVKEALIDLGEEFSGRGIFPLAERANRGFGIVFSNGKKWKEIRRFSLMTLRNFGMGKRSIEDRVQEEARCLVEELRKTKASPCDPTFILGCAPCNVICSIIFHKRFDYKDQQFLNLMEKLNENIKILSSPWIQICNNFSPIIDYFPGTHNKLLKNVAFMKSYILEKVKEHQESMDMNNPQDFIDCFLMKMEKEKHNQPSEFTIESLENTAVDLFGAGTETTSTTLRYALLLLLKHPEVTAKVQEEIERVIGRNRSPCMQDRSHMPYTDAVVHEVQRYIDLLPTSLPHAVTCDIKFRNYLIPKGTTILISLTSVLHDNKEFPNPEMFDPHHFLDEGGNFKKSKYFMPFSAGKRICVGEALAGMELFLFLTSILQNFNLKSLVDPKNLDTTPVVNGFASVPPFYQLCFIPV

[7] = DRUGMATRIX: Glutamate, NMDA, Agonism radioligand binding (ligand: [3H] CGP-39653); format: cell membranes, Rattus norvegicus, Wistar, Cerebral cortex, Membrane; settings: Not Active = under 50% inhibition at 10 µM
Caspase-1 = molecular target: T4, Caspase-1 (Homo sapiens, UniProt P29466); set-up: species or system Escherichia coli
T4 sequence (P29466 whole entry): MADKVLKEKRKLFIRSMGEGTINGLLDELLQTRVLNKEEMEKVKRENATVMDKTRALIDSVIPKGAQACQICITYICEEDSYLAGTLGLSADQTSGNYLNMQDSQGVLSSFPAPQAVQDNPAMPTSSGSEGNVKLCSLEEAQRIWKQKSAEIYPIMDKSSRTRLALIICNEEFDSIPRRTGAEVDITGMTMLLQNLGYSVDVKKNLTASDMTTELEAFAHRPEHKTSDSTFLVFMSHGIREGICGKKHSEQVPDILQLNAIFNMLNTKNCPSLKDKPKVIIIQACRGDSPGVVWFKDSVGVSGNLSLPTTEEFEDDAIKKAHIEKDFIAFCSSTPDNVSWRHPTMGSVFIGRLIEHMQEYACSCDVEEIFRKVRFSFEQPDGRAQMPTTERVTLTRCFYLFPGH

CCOC(=O)C1=C(COCCN)NC(C)=C(C(=O)OC)C1c1ccccc1Cl (configuration not stated) [AMLODIPINE]
Not Active: IC50 [1] | Ki [1] | IC50 [2] | IC50 [3] | Ki [3] | IC50 [4] | IC50 [5] | IC50 [6] | IC50 (Cytochrome P450 2C9) | Ki (Cytochrome P450 2C9) | IC50 [7] | Ki [7] | IC50 (Caspase-1)

CC1Cc2ccccc2N1NC(=O)c1ccc(Cl)c(S(N)(=O)=O)c1 (configuration not stated) [INDAPAMIDE]
Not Active: IC50 [1] | Ki [1] | IC50 [2] | IC50 [3] | Ki [3] | IC50 [4] | IC50 [5] | IC50 [6] | IC50 (Cytochrome P450 2C9) | Ki (Cytochrome P450 2C9) | IC50 [7] | Ki [7] | IC50 (Caspase-1)

Cc1c2oc3c(C)ccc(C(=O)N[C@@H]4C(=O)N[C@H](C(C)C)C(=O)N5CCC[C@H]5C(=O)N(C)CC(=O)N(C)[C@@H](C(C)C)C(=O)O[C@@H]4C)c3nc-2c(C(=O)N[C@@H]2C(=O)N[C@H](C(C)C)C(=O)N3CCC[C@H]3C(=O)N(C)CC(=O)N(C)[C@@H](C(C)C)C(=O)O[C@@H]2C)c(N)c1=O [DACTINOMYCIN] (I: T[dV]P[Sar][NMeV] / II: T[dV]P[Sar][NMeV]; ester I:1-I:C, II:1-II:C; linker I:N-II:N via Actinocin(1to9))
Not Active: IC50 [1] | Ki [1] | IC50 [2] | IC50 [3] | Ki [3] | IC50 [4] | IC50 [5] | IC50 [6] | IC50 (Cytochrome P450 2C9) | Ki (Cytochrome P450 2C9) | IC50 [7] | Ki [7] | IC50 (Caspase-1)

NCCCCCC(=O)O [AMINOCAPROIC ACID]
Not Active: IC50 [1] | Ki [1] | IC50 [2] | IC50 [3] | Ki [3] | IC50 [4] | IC50 [5] | IC50 [6] | IC50 (Cytochrome P450 2C9) | Ki (Cytochrome P450 2C9) | IC50 [7] | Ki [7] | IC50 (Caspase-1)

c1ccc(Nc2ccc(Nc3ccccc3)cc2)cc1
Not Active: IC50 [1] | Ki [1] | IC50 [2] | IC50 [3] | Ki [3] | IC50 [4] | IC50 [5] | IC50 [6] | IC50 (Cytochrome P450 2C9) | Ki (Cytochrome P450 2C9) | IC50 [7] | Ki [7] | IC50 (Caspase-1)

NC(=O)N1c2ccccc2CCc2ccccc21
Not Active: IC50 [1] | Ki [1] | IC50 [2] | IC50 [3] | Ki [3] | IC50 [4] | IC50 [5] | IC50 [6] | IC50 (Cytochrome P450 2C9) | Ki (Cytochrome P450 2C9) | IC50 [7] | Ki [7] | IC50 (Caspase-1)

Cc1ccc(-c2cc(C(F)(F)F)nn2-c2ccc(S(N)(=O)=O)cc2)cc1 [CELECOXIB]
Not Active: IC50 [1] | Ki [1] | IC50 [2] | IC50 [3] | Ki [3] | IC50 [4] | IC50 [5] | IC50 [6] | IC50 (Cytochrome P450 2C9) | Ki (Cytochrome P450 2C9) | IC50 [7] | Ki [7] | IC50 (Caspase-1)

CC(O)CO (configuration not stated) [PROPYLENE GLYCOL]
Not Active: IC50 [1] | Ki [1] | IC50 [2] | IC50 [3] | Ki [3] | IC50 [4] | IC50 [5] | IC50 [6] | IC50 (Cytochrome P450 2C9) | Ki (Cytochrome P450 2C9) | IC50 [7] | Ki [7] | IC50 (Caspase-1)

CC(C)C(Br)C(=O)NC(N)=O (configuration not stated) [BROMISOVALUM]
Not Active: IC50 [1] | Ki [1] | IC50 [2] | IC50 [3] | Ki [3] | IC50 [4] | IC50 [5] | IC50 [6] | IC50 (Cytochrome P450 2C9) | Ki (Cytochrome P450 2C9) | IC50 [7] | Ki [7] | IC50 (Caspase-1)
